According to patent US20220072149A1, “BIOLOGICALLY ACTIVE CLUSTER OF MOLECULES” (priority 2018, published 2022):

Columns and labels:
HeLa cells = assay: HeLa cell viability assay (MTS): inhibition of SO1861-mediated endosomal escape by polymeric structures; format: cell-based, human; conditions: […] dianthin-EGF + SO1861 curve, PAMAM 500 nM, chloroquine 500 nM, dendron 667 nM, 72 hr
Method: HeLa cells were seeded in DMEM (PAN-Biotech GmbH) supplemented with 10% fetal bovine serum (PAN-Biotech GmbH) and 1% penicillin/streptomycin (PAN-Biotech GmbH), in a 96 well plate at 5,000 c/w in 100 μL/well and incubated overnight at 37° C. and 5% CO2. The next day 20× concentrated stocks of the PAMAM, PAMAM-conjugates, G4-dendron (prepared in Example 3) or chloroquine (Sigma Aldrich) samples were prepared in DMEM. The media was removed from the cell culture plate and replaced by […] culture media, followed by the addition of 10 μL sample/well (from the 20× concentrated stocks) and a 45 min incubation at 37° C. […] Followed by 15 sec sonication and a brief re-heating at 50° C. for 1 min, while shaking at 1,250 rpm. Subsequently a serial dilution of SO1861 was prepared in PBS.
As control for the inhibition of endosomal acidification chloroquine was used.

HER14 cells = assay: viability assay with HER14 cells (MTT); format: cell-based; conditions: 0.1 nM dianthin-EGF, 72 h
Method: To test the efficacy of the invention, we conducted a viability assay with HER14 cells. These cells are fibroblasts stably transfected with the human epidermal growth factor receptor and therefore target cells for the targeted toxin dianthin-EGF. HER14 cells (2,000 cells/100 μL/well) were seeded into wells of 96-well-cell culture plates and incubated for 24 h in DMEM medium supplemented with 10% fetal calf serum and 1% penicillin/streptomycin at 37° C., 5% CO2 and 98% humidity. The different test substances (see results and FIG. 21) were then added in triplicates in a volume of 25 μL and supplemented with further 25 μL of medium. After an incubation of 72 h, 30 μL 3-(4,5-dimethylthiazol-2-yl)-2,5-diphenyltetrazolium bromide (0.5 mg/mL in water) was added per well and incubated for 2 h. Thereafter, the medium was carefully removed and replaced by an aqueous solution containing 10% (v/v) isopropanol, 5% (w/v) sodium dodecyl sulfate and 400 mM HCl, and incubated for 5 min. Solubilized formazan was photometrically quantitated at […] in a microplate reader (Spectra MAX 340 PC, Molecular Devices, Sunnyvale, Calif., USA). Untreated cells were normalized to 1 and all samples referred to the untreated control. Significance was determined by unpaired two-sample t-tests.

| Compound | inhibition of SO1861-mediated endosomal escape of the targeted toxin and subsequent cell killing (HeLa cells) | effect on the toxicity of dianthin-EGF (HER14 cells) |
| --- | --- | --- |
| CCN(CC)CCCC(C)Nc1ccnc2cc(Cl)ccc12 (centres unmarked) [chloroquine] | inhibit | – |
| C[C@@H]1O[C@@H](O[C@H]2[C@H](OC(=O)[C@]34CCC(C)(C)C[C@H]3C3=CC[C@@H]5[C@@]6(C)CC[C@H](O[C@H]7O[C@H](C(=O)O)[C@@H](O)[C@H](O[C@@H]8OC[C@@H](O)[C@H](O)[C@H]8O)[C@H]7O[C@@H]7O[C@H](CO)[C@H](O)[C@H](O)[C@H]7O)[C@@](C)(C=O)[C@@H]6CC[C@@]5(C)[C@]3(C)CC4)O[C@H](C)[C@H](O[C@@H]3O[C@H](C)[C@@H](O)[C@H](O)[C@H]3O)[C@@H]2O)[C@H](O)[C@H](O)[C@H]1O[C@@H]1OC[C@@H](O)[C@H](O[C@@H]2OC[C@@H](O)[C@H](O)[C@H]2O)[C@H]1O [SA1641] | – | death of al cells |
